According to patent US20260335323A1, “CHIMERIC MOLECULE” (UCL Business Ltd, priority 2023, published 2026):

What was measured:
Mfn2 = test: Western blot, Mfn2 degradation in MEF WT; assay type: cell-based, mouse; details: MEF WT
Method: (§1) FIG. 6. ULKTACs rely on ULK1 for the redirection of autophagy components to mitochondria and subsequent mitophagic degradation (A) Western blot of mouse embryonic fibroblasts (MEF) WT and MEF ULK1/2^−/− treated with 1 mM ULKTACs, 5 mM CCCP or both and probed for ULK1, Mfn2 and Actin—quantification of the relative intensity of Mfn2 shown in (B), normalised to Actin. Representative immunofluorescence of MEF WT (C) and MEF ULK1/2^−/− (D) treated with 5 mM CCCP, 1 mM ULKTACs or both and immunostained for Alexa 488 ATP5a and Alexa 647 LC3B. Quantification of the colocalised LC3 to ATP5a spot area shown in WT vs ULK1/2^−/− treated MEF cells shown in (E). Data shown are mean±SEM, n=3, *p<0.05, ** p<0.01, *** p<0.001, Two-way ANOVA with Tukey's multiple comparisons test.
Cells were homogenised in protein lysis buffer consisting of 0.1 M Tris pH 8.0, 0.1 M NaCl, 5% glycerol, IGEPAL® CA-630 (#18896. Sigma-Aldrich) and 5 mM EDTA, 0.1 M N-ethyl maleimide (ThermoFisher, #23030) and protease inhibitor (Cell Signalling Technologies, #5871). Protein concentrations were determined using the BCA assay to ensure equal loading. […] The membranes were immunoblotted with primary antibodies, overnight at 4° C. ULK1 (D8H5) Rabbit mAb (#0854) [1:1000], Phospho-ULK1 (Ser 317) Rabbit antibody (#37762) [1:1000], LC3B Rabbit antibody (#2775) [1:1000], TOM20 (D8T4N) Rabbit mAb (#42406) [1:1000] and, Phospho-Ubiquitin (Ser 65) (E2J6T) Rabbit mAb (#62082) [1:500] were obtained from Cell Signalling Technologies. Recombinant Anti-Vinculin Rabbit antibody (EPR8185) (#ab129002) [1:5000] and Anti-Mitofusin2 mouse antibody (6A8) (#ab56889) [1:1000] were purchased from Abcam. Anti-Actin mouse monoclonal antibody (#A1978) [1:1000] and Anti-rabbit p62/SQSTM1 (#P0067) [1:1000], were purchased from Sigma-Aldrich. Mono- and polyubiquitinylated conjugates monoclonal antibody (FK2) (BML-PW8810-0100) [1:500] was purchased from Enzo Life Sciences. Anti BRD4 (E2A7X) rabbit monoclonal antibody (#13440), Anti c-MYC (D84C12) rabbit monoclonal antibody (#5605) [1:1000], Anti GAPDH (D4C6R) mouse monoclonal antibody (#97166) [1:1000], Anti Max (S20) rabbit monoclonal antibody (#4739) [1:1000] were purchased from Cell Signalling Technologies. Anti Phospho-CHK1 (Ser 345) rabbit monoclonal antibody (#2341) [1:1000], Anti gamma-H2AX (Ser 139) rabbit monoclonal antibody (#2577) [1:1000] were obtained from Cell Signalling Technologies, Anti RPA32/RPA2 (phospho S4/S8) rabbit monoclonal antibody (ab87277) [1:1000] were obtained from Abcam.
Membranes were then incubated with horseradish peroxidase (HRP)-conjugated secondary antibodies (Rabbit #7074 and Mouse #7076) purchased from Cell Signalling Technologies for 1 hour and the HRP signal was detected using EZ-ECL Enhanced Chemiluminescence Detection Kit for HRP (#20-500-500, Sartorius), and imaged with an Alliance Q9 Advanced (UVITec). Where required, membranes were stripped with mild stripping buffer consisting of 0.2 M glycine, 3.47 mM SDS, 1% Tween 20, pH 2.2, blocked for 1 hour with TBS-T+3% BSA and re-probed with primary antibodies.
Therefore, we conclude that NZ-65 and NZ-66 are novel ULKTAC molecules that initiate the recruitment of ULK1 to mitochondria, leading to an increase in local ULK1 activity, the formation of an autophagosome and mitophagy.

LC3 = test: ATP5a/LC3 co-localisation immunofluorescence in MEF ULK1/2-/-; assay type: cell-based, mouse; details: ULK1/2-/- cells
Method: as §1
For TOM20/ULK1 immunofluorescence, cells were seeded in a 384 well PerkinElmer CellCarrier Ultra plate 24 hours prior to treatment with compounds. Cells were treated for 18 hours after which they were fixed with 4% paraformaldehyde (PFA) in phosphate buffered saline (PBS) and blocked with 10% FBS and 0.1% Triton in PBS. Plates were incubated at 4° C. overnight, with 1:400 mouse anti-TOM20 (Santa Cruz, #sc-17764) and 1:400 rabbit anti-ULK1 (Cell Signalling Technologies, #0854). […]

H1299 cells = test: Cell viability assay (CellTiter Glo), H1299; assay type: cell-based, human; details: H1299, increasing concentrations
Method: A549 and H1299 cells were seeded in OptiPlate-384 well plates and treated with increasing concentrations of (+)-JQ1 or NZ-147 from 0 μM to 10 µM in Example 8 and with increasing concentrations of NZ-175 from 0 µM to 10 µM in Example 9. Cells were treated for 120 h before using the luciferase based CellTiter Glo assay (Promega) to measure cell viability.
Cell viability assay was performed in A549 and H1299 cells, which were treated with different concentrations of (+)-JQ1 or NZ-147 at 100 nM for 72 hours (FIG. 10B).
Cell viability assay was performed in A549 and H1299 cells, which were treated with different concentrations of NZ-147 at 100 nM for 72 hours (FIG. 16B).

SMILES | degradation of Mfn2 (Mfn2; co-treatment with CCCP) | degradation of Mfn2 (Mfn2; compound alone) | co-localisation of ATP5a with LC3 (LC3) | percentage of live cells (H1299 cells)
O=C(Nc1cc(C(F)(F)F)cc(C(F)(F)F)c1)N[C@@H](C(=O)Nc1ccc(F)cc1F)c1ccc(OCc2cn(CCOCCOCCNC(=O)C(=O)c3c(-c4ccccc4)[nH]c4ccccc34)nn2)cc1 [NZ-65, (R)-2-(3-(3,5-bis(trifluoromethyl)phenyl)ureido)-N-(2,4-difluorophenyl)-2-(4-((1-(2-(2-(2-(2-oxo-2-(2-phenyl-1H-indol-3-yl)acetamido)ethoxy)ethoxy)ethyl)-1H-1,2,3-triazol-4-yl)methoxy)phenyl) acetamide] | further enhanced by co-treatment with CCCP | degradation of Mfn2 | absent | 
O=C(Nc1cc(C(F)(F)F)cc(C(F)(F)F)c1)N[C@@H](C(=O)Nc1ccc(F)cc1F)c1ccc(OCc2cn(CCCCCCNC(=O)C(=O)c3c(-c4ccccc4)[nH]c4ccccc34)nn2)cc1 [NZ-66, (R)-2-(3-(3,5-bis(trifluoromethyl)phenyl)ureido)-N-(2,4-difluorophenyl)-2-(4-((1-(6-(2-oxo-2-(2-phenyl-1H-indol-3-yl)acetamido)hexyl)-1H-1,2,3-triazol-4-yl)methoxy)phenyl) acetamide] | further enhanced by co-treatment with CCCP | degradation of Mfn2 | absent | 
Cc1sc2c(c1C)C(c1ccc(Cl)cc1)=N[C@@H](CC(=O)NCCOCCOCCOCCn1cc(COc3ccc([C@@H](NC(=O)Nc4cc(C(F)(F)F)cc(C(F)(F)F)c4)C(=O)Nc4ccc(F)cc4F)cc3)nn1)c1nnc(C)n1-2 [NZ-147, (R)-2-(3-(3,5-bis(trifluoromethyl)phenyl)ureido)-2-(4-((1-(1-((S)-4-(4-chlorophenyl)-2,3,9-trimethyl-6H-thieno[3,2-f][1,2,4]triazolo[4,3-a][1,4]diazepin-6-yl)-2-oxo-6,9, 12-trioxa-3-azatetradecan-14-yl)-1H-1,2,3-triazol-4-yl)methoxy)phenyl)-N-(2,4-difluorophenyl) acetamide] |  |  |  | dose-dependent decrease in the percentage of live cells
